Data on 25 compounds can be found in patent publication US20210300900A1, “OGA INHIBITOR COMPOUNDS” (Janssen Pharmaceutica NV, priority 2018, published 2021).

The melting point is the temperature of the solid-liquid transition. One may read the Emax as the maximal effect, on the per cent scale that the assay sets.

Structures can show the parent of a compound that is named as a salt.

Data set [1] addresses T1, recombinant human Meningioma Expressed Antigen 5 (MGEA5), also referred to as O-GcNAcase (OGA) (Homo sapiens, UniProt O60502).
T1 construct: Full length OGA enzyme was purchased at OnGene (cat #TP322411); purchased OnGene (so in the source)
T1 sequence (O60502 1-916): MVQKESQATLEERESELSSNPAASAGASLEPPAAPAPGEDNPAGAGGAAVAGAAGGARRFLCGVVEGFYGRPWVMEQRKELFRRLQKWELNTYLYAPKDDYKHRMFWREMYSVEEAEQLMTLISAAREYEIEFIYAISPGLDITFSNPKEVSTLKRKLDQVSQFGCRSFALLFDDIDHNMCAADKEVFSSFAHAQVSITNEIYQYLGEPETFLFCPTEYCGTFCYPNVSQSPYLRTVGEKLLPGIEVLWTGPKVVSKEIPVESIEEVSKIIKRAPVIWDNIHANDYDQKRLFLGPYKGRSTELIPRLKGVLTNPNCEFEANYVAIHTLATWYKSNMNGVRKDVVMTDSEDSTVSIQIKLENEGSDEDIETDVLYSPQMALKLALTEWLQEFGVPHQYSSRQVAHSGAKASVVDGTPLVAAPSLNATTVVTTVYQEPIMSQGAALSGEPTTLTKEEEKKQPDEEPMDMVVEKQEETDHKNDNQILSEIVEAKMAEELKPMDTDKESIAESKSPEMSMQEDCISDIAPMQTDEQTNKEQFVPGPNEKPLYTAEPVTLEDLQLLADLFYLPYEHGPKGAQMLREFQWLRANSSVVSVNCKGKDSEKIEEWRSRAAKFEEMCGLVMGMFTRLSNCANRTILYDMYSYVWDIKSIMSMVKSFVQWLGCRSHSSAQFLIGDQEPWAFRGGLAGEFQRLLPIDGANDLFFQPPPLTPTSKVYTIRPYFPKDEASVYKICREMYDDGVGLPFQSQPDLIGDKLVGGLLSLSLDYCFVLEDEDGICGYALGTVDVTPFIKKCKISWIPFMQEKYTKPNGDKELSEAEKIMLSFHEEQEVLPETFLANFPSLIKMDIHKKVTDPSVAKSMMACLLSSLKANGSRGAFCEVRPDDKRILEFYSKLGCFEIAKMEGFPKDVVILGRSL
Kind of data set: OGA biochemical assay (inhibition of FM-GlcNAc hydrolysis, fluorescence). The settings on record: FM-GlcNAc substrate; for Emax: read-out: Enzymatic Emax (%); for IC50: read-out: Enzymatic hOGA, pIC50 (converted). The method in brief:
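Full-length recombinant human OGA (2 nM) pre-incubated 60 min with compound, then FM-GlcNAc (100 uM final) added in 200 mM citrate/phosphate pH 7.2 with 0.005% Tween-20; 6 h at room temperature, stopped with pH 11.0 carbonate. Fluorescein read at ex 485/em 538 nm; IC50 and Hill coefficient from curve fit against no-inhibitor and saturating-standard controls.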

The target of a further data set is T2, OGA (Homo sapiens, UniProt O60502).
T2 construct: endogenous in cells; host or cells: HEK293 cells inducible for P301L mutant human Tau (isoform 2N4R)
T2 sequence (O60502 1-916): T1 sequence (O60502 1-916)
The data set is described as follows: OGA cellular assay (ICC detection of O-GlcNAcylated proteins in HEK293 cells inducible for P301L mutant human Tau). Format: cell-based. The settings on record: 6 hours incubation; for Emax: HEK293, HEK293 cells inducible for P301L mutant human Tau; for Emax / Cellular Emax (%): maximum = Thiamet G 200 uM; for EC50 / Cellular hOGA; pEC50 / Cellular Emax (%): HEK293 cells inducible for P301L mutant human Tau; for EC50: read-out: Cellular hOGA, pEC50 (converted). The protocol: HEK293 cells inducible for P301L mutant human Tau (isoform 2N4R) were established at Janssen. Thiamet-G was used for both plate validation (high control) and as reference compound (reference EC50 assay validation). OGA inhibition is evaluated through the immunocytochemical (ICC) detection of O-GlcNAcylated proteins by the use of a monoclonal antibody (CTD110.6; Cell Signaling, #9875) detecting O-GlcNAcylated residues as previously described (Dorfmueller et al. 2010 Chemistry & biology, 17:1250). Inhibition of OGA will result in an increase of O-GlcNAcylated protein levels resulting in an increased signal in the experiment. Cell nuclei are stained with Hoechst to give a cell culture quality control and a rough estimate of immediate compounds toxicity, if any. ICC pictures are imaged with a Perkin Elmer Opera Phenix plate microscope and quantified with the provided software Perkin Elmer Harmony 4.1.
Cells were propagated in DMEM high Glucose (Sigma, #D5796) following standard procedures. 2 days before the cell assay cells are split, counted and seeded in Poly-D-Lysine (PDL) coated 96-wells (Greiner, #655946) plate at a cell density of 12,000 cells per cm^2 (4,000 cells per well) in 100 μl of Assay Medium (Low Glucose medium is used to reduce basal levels of GlcNAcylation) (Park et al. 2014 The Journal of biological chemistry 289:13519). At the day of compound test medium from assay plates was removed and replenished with 90 μl of fresh Assay Medium. 10 μl of compounds at a 10 fold final concentration were added to the wells. Plates were centrifuged shortly before incubation in the cell incubator for 6 hours. DMSO concentration was set to 0.2%. Medium is discarded by applying vacuum. For staining of cells medium was removed and cells washed once with 100 μl D-PBS (Sigma, #D8537). From next step onwards unless other stated assay volume was always 50 μl and incubation was performed without agitation and at room temperature. Cells were fixed in 50 μl of a 4% paraformaldehyde (PFA, Alpha aesar, #043368) PBS solution for 15 minutes at room temperature. […] Before analysis samples were washed 2 times manually for 5 minutes in ICC base buffer.
Imaging is performed using Perkin Elmer Phenix Opera using a water 20×objective and recording 9 fields per well. Intensity readout at 488 nm is used as a measure of O-GlcNAcylation level of total proteins in wells. To assess potential toxicity of compounds nuclei were counted using the Hoechst staining. IC50-values are calculated using parametric non-linear regression model fitting. As a maximum inhibition Thiamet G at a 200 uM concentration is present on each plate. In addition, a concentration response of Thiamet G is calculated on each plate.

In turn, `CC(=O)Nc1ccnc(CN2CCC[C@H](Cc3cc(C)nc(C)c3)C2)c1` (as salt: HCl) [Product 31] returned a melting point of 133 °C.

Turning to `CC(=O)Nc1ccnc(C(C)N2CCC[C@H](Cc3cc(C)nc(C)c3)C2)c1` (stereo partly drawn) (as salt: HCl) [Product 32], the melting point was determined as 138 °C.

`CC(=O)Nc1cncc(CN2CCC[C@H](Cc3cc(C)nc(C)c3)C2)c1` (as salt: HCl) [Product 34]: the melting point was 186.5 °C.

On to `CC(=O)Nc1cc(CN2CCC[C@H](Cc3cc(C)nc(C)c3)C2)cnn1` (as salt: HCl) [Product 62], for which the melting point was 206.5 °C.

In the case of `CC(=O)Nc1cc(C(C)N2CCCC(CNc3cc(C)nc(C)c3)C2)[nH]n1` (stereo not drawn) (as salt: HCl) [Product 83], the melting point was found to be 245 °C.

For `Cc1cc(C[C@H]2CCCN(Cc3cc(C4CC4)[nH]n3)C2)cc(C)n1` [Product 20], in data set [1], the Emax turned out to be 96% and the IC50 was 0.851 µM. At OGA, the Emax was determined as 11% and the EC50 is > 1 µM.

With `CCOc1nc(CN2CCC[C@H](Cc3cc(C)nc(C)c3)C2)c[nH]1` [Product 23], in data set [1], the Emax turned out to be 102% and the IC50 was 0.0603 µM. For the same compound, at OGA, the Emax came out at 70% and the EC50 is 0.427 µM.

As for `CC(=O)Nc1ccc(CN2CCC[C@H](Cc3cc(C)nc(C)c3)C2)s1` [Product 28], in data set [1], the Emax amounted to 100% and the IC50 was 0.0191 µM. At OGA, the Emax came to 75% and the EC50 is 0.309 µM.

Regarding `CC(=O)Nc1cncc(CN2CCC[C@H](Cc3cc(C)nc(C)c3)C2)c1` [Product 34], in data set [1], the Emax stood at 91% and the IC50 was 0.49 µM. Besides, on OGA, the Emax turned out to be 4% and the EC50 was > 1 µM.

Turning to `COc1ccc(F)c([C@H](C)N2CCC[C@H](Cc3cc(C)nc(C)c3)C2)n1` [Product 42], in data set [1], the “Enzymatic Emax (%)” value worked out at 103% and the “Enzymatic hOGA; pIC50” value worked out at 7.88. Besides, on OGA, the “Cellular hOGA; pEC50” value turned out to be 7.03 and the “Cellular Emax (%)” value worked out at 100%.

Turning to `COc1cccc([C@H](C)N2CCC[C@H](Cc3cc(C)nc(C)c3)C2)n1` [Product 47], in data set [1], the “Enzymatic Emax (%)” value is given as 102% and the “Enzymatic hOGA; pIC50” value is given as 7.28. Moreover, at OGA, the “Cellular hOGA; pEC50” value was 6.29 and the “Cellular Emax (%)” value is 67%.

Regarding `CC(=O)Nc1cnc(CN2CCC[C@H](Cc3cc(C)nc(C)c3)C2)cn1` [Product 63], in data set [1], the Emax is 93% and the IC50 was 1.2 µM. For the same compound, at OGA, the Emax is 25% and the EC50 was > 1 µM.

For `COc1cc(C[C@H]2CCCN(C(C)c3cc(NC(C)=O)[nH]n3)C2)cc(C)n1` (stereo partly drawn) [Product 66], in data set [1], the Emax came to 102% and the IC50 is 0.0186 µM. Also, at OGA, the Emax stood at 83% and the EC50 is 0.2 µM.

Turning to `COc1ccc(F)c(C(C)N2CCCC(c3cc(C)nc(C)c3)C2)n1` (stereo not drawn) [Product 74], in data set [1], the Emax amounted to 102% and the IC50 is 0.0355 µM. For the same compound, at OGA, the Emax amounted to 48% and the EC50 was 0.676 µM.

On to `COc1cc(C[C@H]2CCCN(C(C)c3nc(OC)ccc3F)C2)cc(C)n1` (stereo partly drawn) [Product 76], for which the “Enzymatic Emax (%)” value in data set [1] (listed as 76) was 101%. In addition, the IC50 in data set [1] is 0.0525 µM. Further, the “Cellular Emax (%)” value at OGA (listed as 76) is given as 30%. Also, the EC50 on OGA is > 1 µM.

In the case of `COc1ccc(F)c(C(C)N2CCC[C@H](Cc3cc(C)nc(C(F)(F)F)c3)C2)n1` (stereo partly drawn) [Product 77], in data set [1], the “Enzymatic Emax (%)” value was found to be 101% and the IC50 was 0.0148 µM. Also, on OGA, the Emax was 49% and the EC50 is 0.955 µM.

Consider `CC(=O)Nc1cc(C(C)N2CCCC(Oc3cc(C)nc(C)c3)C2)n[nH]1` (stereo not drawn) [Product 80], for which, in data set [1], the Emax amounted to 102% and the IC50 was 0.102 µM. In addition, at OGA, the Emax is 7% and the EC50 is > 1 µM.

On to `COc1ccc(F)c(C(C)N2CCCC(Oc3cc(C)nc(C(F)(F)F)c3)C2)n1` (stereo not drawn) [Product 82], for which, in data set [1], the Emax turned out to be 97% and the IC50 is 0.891 µM. For the same compound, on OGA, the Emax came to 6% and the EC50 was > 1 µM.

`COc1ccc(F)c(C(C)N2CCCC(CNc3cc(C)nc(C)c3)C2)n1` (stereo not drawn) [Product 86]: in data set [1], the Emax was 102% and the IC50 is 0.017 µM. Moreover, at OGA, the Emax came out at 94% and the EC50 is 0.0562 µM.

For the compound `COc1cccc([C@H](C)N2CCC[C@@H](CNc3cc(C)nc(C(F)(F)F)c3)C2)n1` [Product 95], in data set [1], the “Enzymatic Emax (%)” value was found to be 103% and the “Enzymatic hOGA; pIC50” value was 7.8. Further, on OGA, the “Cellular hOGA; pEC50” value was <6 and the “Cellular Emax (%)” value worked out at 44%.

`COc1ccc(F)c(C(C)N2CCCC(CNc3cc(C)nc(C(F)(F)F)c3)C2)n1` (stereo not drawn) [Product 96]: in data set [1], the Emax came to 104% and the IC50 is 0.0135 µM. Moreover, at OGA, the Emax stood at 23% and the EC50 is > 1 µM.

In the case of `CC(=O)Nc1cc(C(C)N2CCCC(Oc3ncc(C)nc3C)C2)n[nH]1` (stereo not drawn) [Product 117], in data set [1], the Emax came to 102% and the IC50 was 0.0646 µM. Moreover, at OGA, the Emax was determined as 30% and the EC50 was > 1 µM.

Turning to `COc1cc(C[C@H]2CCCN(C(C)c3nc(OC)ccc3F)C2)cc(C)n1` (stereo partly drawn) [Product 118], in data set [1], the Emax was found to be 99% and the IC50 was 0.0871 µM. Further, the “Cellular Emax (%)” value on OGA (listed as 118) amounted to 82%. The EC50 on OGA was 0.219 µM.

As to `COc1ccc(F)c(C(C)N2CCCC(Oc3cc(C)nc(C)c3)C2)n1` (stereo not drawn) [Product 137], in data set [1], the Emax was 102% and the IC50 was 0.107 µM. Further, on OGA, the Emax worked out at 4% and the EC50 was > 1 µM.

With `CCOc1cc(CN2CCC[C@H](Cc3cc(C)nc(C)c3)C2)n(C)n1` [Product 162], the “Enzymatic Emax (%)” value in data set [1] was 36%. In addition, at OGA, the Emax was -6% and the EC50 is > 1 µM.
